Patent publication US20150190377A1, “NEURONAL REGENERATION” (The Regents of the University of California, a California …, priority 2014, published 2015)
Numbering of substitutions follows the chain as printed.

Experiments:
[1] = target: T1, PTEN (Homo sapiens, UniProt P60484); assay: Western blot of phosphorylated AKT (PTEN inhibition), human 293 cells; assay type: cell-based; conditions: increasing concentrations, pAKT (Ser473)
T1 construct: Western blot analysis of cultured human (293), mouse (N2A) and rat (PC12) cells; endogenous in cells; host or cells: human 293 cells
T1 sequence (P60484 whole entry): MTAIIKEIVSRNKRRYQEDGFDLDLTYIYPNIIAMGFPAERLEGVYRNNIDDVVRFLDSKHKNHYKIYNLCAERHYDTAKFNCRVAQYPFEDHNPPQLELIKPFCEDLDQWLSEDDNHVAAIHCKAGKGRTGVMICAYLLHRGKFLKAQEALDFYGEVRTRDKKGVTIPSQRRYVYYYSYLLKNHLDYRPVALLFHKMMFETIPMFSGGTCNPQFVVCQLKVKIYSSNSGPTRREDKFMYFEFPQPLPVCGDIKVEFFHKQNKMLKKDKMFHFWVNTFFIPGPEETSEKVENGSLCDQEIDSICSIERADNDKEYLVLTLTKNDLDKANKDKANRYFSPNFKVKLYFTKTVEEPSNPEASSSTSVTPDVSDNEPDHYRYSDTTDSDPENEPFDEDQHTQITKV
Experimental: (§1) FIGS. 13A-13D. Western blot analysis of cultured human (293) (FIG. 13A), mouse (N2A) (FIG. 13B) and rat (PC12) (FIG. 13C) cells treated with Luteolin (P2) and Quercetin (P6). FIG. 13D: Protein levels of PTEN, AKT, pAKT (Ser473) and beta-Tubulin were measured.
(§2) The inhibition of PTEN was tested following the phosphorylated form of AKT.

[2] = target: T2, PTEN (Rattus norvegicus, UniProt O54857); assay: Western blot of phosphorylated AKT (PTEN inhibition), rat PC12 cells; assay type: cell-based; conditions: increasing concentrations, pAKT (Ser473)
T2 construct: Western blot analysis of cultured human (293), mouse (N2A) and rat (PC12) cells; endogenous in cells; host or cells: rat PC12 cells
T2 sequence (O54857 whole entry): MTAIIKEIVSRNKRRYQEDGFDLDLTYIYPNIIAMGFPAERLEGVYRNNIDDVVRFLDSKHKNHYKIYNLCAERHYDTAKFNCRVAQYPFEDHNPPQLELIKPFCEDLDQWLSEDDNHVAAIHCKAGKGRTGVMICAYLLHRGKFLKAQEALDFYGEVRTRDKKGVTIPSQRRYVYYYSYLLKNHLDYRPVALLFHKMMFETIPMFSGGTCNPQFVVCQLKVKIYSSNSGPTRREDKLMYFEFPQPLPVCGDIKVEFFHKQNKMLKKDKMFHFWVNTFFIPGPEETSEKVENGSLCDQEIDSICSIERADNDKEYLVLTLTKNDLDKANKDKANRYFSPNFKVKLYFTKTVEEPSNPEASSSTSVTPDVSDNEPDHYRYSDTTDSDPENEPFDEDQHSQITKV
Experimental: as §1, §2

[3] = target: T3, PTEN (Mus musculus, UniProt O08586); assay: Western blot of phosphorylated AKT (PTEN inhibition), mouse N2A cells; assay type: cell-based; conditions: increasing concentrations, pAKT (Ser473)
T3 construct: Western blot analysis of cultured human (293), mouse (N2A) and rat (PC12) cells; endogenous in cells; host or cells: mouse N2A cells
T3 sequence (O08586 whole entry): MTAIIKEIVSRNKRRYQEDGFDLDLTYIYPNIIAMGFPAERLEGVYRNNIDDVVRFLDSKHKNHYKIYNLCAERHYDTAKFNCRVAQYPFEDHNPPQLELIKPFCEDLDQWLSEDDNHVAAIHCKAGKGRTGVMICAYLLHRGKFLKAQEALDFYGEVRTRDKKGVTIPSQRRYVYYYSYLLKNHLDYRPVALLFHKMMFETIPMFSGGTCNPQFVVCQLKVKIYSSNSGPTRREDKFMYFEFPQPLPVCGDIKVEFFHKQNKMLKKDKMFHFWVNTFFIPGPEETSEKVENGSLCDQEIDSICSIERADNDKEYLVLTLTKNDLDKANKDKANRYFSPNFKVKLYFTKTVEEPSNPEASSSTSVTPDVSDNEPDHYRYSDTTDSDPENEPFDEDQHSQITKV
Experimental: as §1, §2

[4] = target: T4, SOCS3 (Rattus norvegicus, UniProt O88583); assay: Western blot of phosphorylated STAT3 (SOCS3 inhibition), rat PC12 cells; assay type: cell-based; conditions: increasing concentration
T4 construct: Western blot analysis of cultured rat (PC12) cells; endogenous in cells; host or cells: rat PC12 cells
T4 sequence (O88583 1-225): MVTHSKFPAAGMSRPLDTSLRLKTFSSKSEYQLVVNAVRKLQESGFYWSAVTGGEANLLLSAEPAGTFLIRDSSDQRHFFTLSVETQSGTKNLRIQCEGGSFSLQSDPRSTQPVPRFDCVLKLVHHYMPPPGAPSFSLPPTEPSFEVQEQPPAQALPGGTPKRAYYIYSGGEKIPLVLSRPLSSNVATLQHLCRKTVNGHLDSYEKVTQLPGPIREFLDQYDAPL
Experimental: (§3) Likewise, the inhibition of SOCS3 was tested following the phosphorylated form of STAT3.

[5] = target: T5, SOCS3 (Mus musculus, UniProt O35718); assay: Western blot of phosphorylated STAT3 (SOCS3 inhibition), mouse N2A cells; assay type: cell-based; conditions: increasing concentration
T5 construct: Western blot analysis of cultured mouse (N2A) cells; endogenous in cells; host or cells: mouse N2A cells
T5 sequence (O35718 1-225): T4 sequence (O88583 1-225) with E85K, A133T, F145S, Q148P, G159S
Experimental: as §3

[6] = target: T6, SOCS3 (Homo sapiens, UniProt O14543); assay: Western blot of phosphorylated STAT3 (SOCS3 inhibition), human 293 cells; assay type: cell-based; conditions: increasing concentration
T6 construct: Western blot analysis of cultured human (293) cells; endogenous in cells; host or cells: human 293 cells
T6 sequence (O14543 1-225): T4 sequence (O88583 1-225) with E85K, S137P, L138S, F145S, Q148P, P152S, A155P, G159S, T160P, K162R
Experimental: as §3

[7] = tested on: regeneration-associated marker genes; assay: q-RT-PCR of regeneration-associated marker genes after treatment with candidate drugs; assay type: cell-based, mouse; conditions: N2A cell lines treated 48 hours, Gapdh internal control, FIG. 10
Experimental: FIG. 10. Quantitative real-time RT-PCR after treatment of candidate drugs. N2A cell lines were treated with the corresponding drugs for 48 hours and the expression levels of the marker genes was measured by q-RT-PCR, using Gapdh as internal control. Nodes represents the genes tested, the edges represent the direction of regulation (i.e., up-regulation, downregulation) and the edge size represents the extent of fold change.
The gene expression signatures were used to identify FDA approved drugs (Lamb 2007) that may modulate the signaling pathways and gene expression necessary for regeneration. […] Based on the results obtained from the pattern matching algorithm present within the Connectivity Map database, the top three matching expression patterns were chosen based on the connectivity and specificity score, which represented the drugs (ambroxol, lasalocid, and disulfiram). The identified compounds were tested for their effect on gene expression levels of regeneration-associated marker genes and to examine the effect on neurite outgrowth in DRG neurons. […] Since the original pattern was derived from non-neuronal cell lines (30), we tested if ambroxol can change the gene-expression levels of these markers in DRG neurons. […] But, it had no previous relationship to regeneration.

[8] = tested on: DRG neurons; assay: neurite outgrowth in DRG neurons after treatment with drugs; assay type: cell-based; conditions: vs control; p<0.05, t-test; FIG. 5B
Description: (§4) FIGS. 5A-5F. Targeting candidate RAG regulatory network using small-molecules. Gene expression signatures after PNS injury were used to query drug-related expression profiles in the Connectivity Map. Using a pattern-matching algorithm, we selected three drugs (ambroxol, disulfiram and lasalocid) based on enrichment and specificity scores. FIG. 5A: Protein-protein interaction (edges) network of co-expressed and differentially expressed genes (nodes) after PNS injury depicting up-regulation and down-regulation after SN lesion; up-regulation and down-regulation after ambroxol treatment (from Connectivity Map). FIG. 5B: Histogram depicting differences in DRG neurite outgrowth after treatment with drugs. […] FIG. 5C: Histogram depicting differential expression of mRNA for critical genes in PPI network validated by qPCR of DRG neurons treated with […] ambroxol (4 days). Legend (FIG. 5C, top to bottom): ATF3, CASP3, EGR1, FOS, JAK2, JUN, KLF4, MYC, PLAUR, RELA, SMAD1, SP1, STAT1 and STAT3: FIGS. 5D-5F: Ambroxol concentration response. […] FIG. 5E: Photomicrographs of DRG neurons in presence of vehicle (control) or 40 μM ambroxol, immunostained for βIII-tubulin. Images acquired using ImagExpressmicro. Scale bar, 50 μm. FIG. 5F: Histogram depicting concentration-response for neurite outgrowth per neuron vs. ambroxol concentration, mean±SEM for three independent experiments. […]

[9] = tested on: optic nerve / retinal ganglion cell axons; assay: optic nerve crush in PTEN knockout mice treated with ambroxol; assay type: in vivo, mouse; conditions: at 2500 um, after 2 weeks, vs control animals, p-value 0.02
Experimental: FIGS. 15A-15E. Ambroxol promotes retinal ganglion cell axonal regeneration in PTEN knockout mice. Ambroxol (Amb-25 mg/ml) or vehicle (Veh) was injected into the eye just before optic nerve crush. Animals received daily 300 mg/kg of ambroxol or vehicle by intraperitoneal (IP) injection for the first five days after the crush and then they received 150 mg/kg until day 14. At day 7 ambroxol (25 mg/ml) or vehicle was injected into the eye. Tracer CTB was injected into the eye on day 11 and animals sacrificed on day 14. FIG. 15A: Representative confocal images of optic nerve sections from PTEN^−/− animal treated with vehicle (n=4) and PTEN^−/− animal treated with ambroxol (n=4). Axons are labeled with CTB. Scale bar: 100 um. Measurements were made blinded to treatment. FIG. 15B: Quantification of number of axons in […]. T-test ** p<0.01 * p<0.05. FIG. 15C: Representative retina whole mount images with Tuj1 and P-S6 antibody staining 2 weeks post injury and FIGS. 15D-15E: Quantification of retinal ganglion cell (RGCs) survival measured by Tuj1 and P-S6 antibody staining Scale bar: 25 um.
Without wishing to be bound by any theory, since ambroxol recapitulates many of the core expression changes in the M280, we reasoned that it would promote CNS regeneration. […]

[10] = tested on: optic nerve / retinal ganglion cell axons; assay: optic nerve regeneration after crush injury in C57BL/6 mice; assay type: in vivo, mouse; conditions: between 200-500 um, after 2 weeks, vs control animals, p-value less than 0.04
Experimental: FIGS. 6A-6E. Ambroxol promotes retinal ganglion cell axonal regeneration. FIG. 6A: Ambroxol (Amb-25 mg/ml) or vehicle (Veh) was injected into the eye just before optic nerve crush (ONC-Day 1). Animals received daily […] of ambroxol (25 mg/ml) or vehicle by intraperitoneal (IP) injection from day 1 to day 14. At day 7 ambroxol (25 mg/ml) or vehicle was injected into the eye. Tracer CTB was injected into the eye on day 11 and animals sacrificed on day 14. FIG. 6B: Representative retina whole mount images with Tuj1 antibody staining 2 weeks post injury and (FIG. 6C) histogram depicting quantification of retinal ganglion cell (RGCs) survival measured by Tuj1 antibody staining Scale bar: 25 um FIG. 6D: Representative confocal images of optic nerve sections from WT animal treated with vehicle (n=10) and WT animal treated with ambroxol (25 mg/ml, n=13). Axons are labeled with CTB. Scale bar: 100 um. Measurements were made blinded to treatment. FIG. 6F: Quantification of number of axons in FIG. 6D as function of distance from crush site. T-test ** p<0.001 * p<0.05.
Ambroxol was tested for the ability to enhance CNS regeneration in vivo after injury. The optic nerve regeneration effect in mice after crush injury was evaluated after treating with and without ambroxol. […] In summary, a FDA approved drug—ambroxol accelerates and improves neural repair in the CNS. […]

[11] = tested on: genes from the M77 network in DRG neurons; assay: qPCR of critical PPI network genes in DRG neurons treated with ambroxol; assay type: cell-based; conditions: DRG neurons treated with 60 mM ambroxol (4 days), P-value<0.05, includes ATF3, FOS, JUN, SMAD1, SP1
Description: as §4

SMILES	expression level of phosphorylated form of AKT (denoting PTEN inhibition) [1]	expression level of phosphorylated form of AKT (denoting PTEN inhibition) [2]	expression level of phosphorylated form of AKT (denoting PTEN inhibition) [3]	expression level of phosphorylated form of STAT3 (denoting SOCS3 inhibition) [4]	expression level of phosphorylated form of STAT3 (denoting SOCS3 inhibition) [5]	expression level of phosphorylated form of STAT3 (denoting SOCS3 inhibition) [6]	other results
O=c1c(O)c(-c2ccc(O)c(O)c2)oc2cc(O)cc(O)c12 [Quercetin, quercetin]	increased expression level of phosphorylated form of AKT	increased expression level of phosphorylated form of AKT	increased expression level of phosphorylated form of AKT	–	–	–	–
O=c1c(-c2ccc(O)cc2)coc2cc(O)cc(O)c12 [Genistein, genistein]	–	–	–	increased expression level of phosphorylated form of STAT3	increased expression level of phosphorylated form of STAT3	increased expression level of phosphorylated form of STAT3	–
O=c1cc(-c2ccc(O)c(O)c2)oc2cc(O)cc(O)c12 [Luteolin, luteolin]	increased expression level of phosphorylated form of AKT	increased expression level of phosphorylated form of AKT	increased expression level of phosphorylated form of AKT	–	–	–	–
CC[C@@H](C(=O)[C@@H](C)[C@@H](O)[C@H](C)CCc1ccc(C)c(O)c1C(=O)O)[C@H]1O[C@](CC)([C@H]2CC[C@](O)(CC)[C@H](C)O2)C[C@@H]1C [lasalocid]	–	–	–	–	–	–	gene-expression levels of marker RAGs [7]: significant changes; DRG neurite outgrowth after treatment with drugs [8]: only ambroxol showed significant enhancement
Nc1c(Br)cc(Br)cc1CNC1CCC(O)CC1 (stereo not drawn) [ambroxol, trans-4-(2-Amino-3,5-dibrombenzylamino)-cyclohexanol]	–	–	–	–	–	–	increase in regeneration beyond the site of the lesion [9]: > 2.9 fold; increase in axon regeneration beyond the site of the lesion [10]: > 1.5 fold; number of genes with significant differential expression among 14 randomly tested genes from the M77 [11]: 8 genes
Cc1ccc(N(CC2=NCCN2)c2cccc(O)c2)cc1 [Phentolamine, phentolamine]	–	–	–	increased expression level of phosphorylated form of STAT3	increased expression level of phosphorylated form of STAT3	increased expression level of phosphorylated form of STAT3	–
